According to patent US7919101B2 (priority 2008, dated 2011):
pEC50: −log10 of the molar value. Read-outs that look alike come from different tables or passages of the source. Residues, ends and D or L forms follow the SMILES beside them.

Tests used:
[1] = system: HIV-1 RU570 (clade G, R5); assay: Inhibition of infection by primary HIV-1 isolate RU570; type: cell-based
Experimental: Inhibitory activity of fusion/entry inhibitors on infection by a primary HIV-1 isolate was determined as previously described (Jiang S et al. Antimicrob Agents Chemother 48:4349-4359, 2004). Peripheral blood mononuclear cells (PBMCs) were isolated from the blood of healthy donors by standard density gradient centrifugation using Histopaque-1077 (Sigma). The cells were plated in 75 cm^2 plastic flasks and incubated at 37° C. for 2 hrs. The nonadherent cells were collected and resuspended at 5×10^6 in 10 ml RPMI-1640 medium containing 10% FBS, 5 μg/ml PHA (phytohemagglutinin) and 100 U/ml IL-2 (Sigma), followed by incubation at 37° C. for 3 days. The PHA-stimulated cells were infected with a primary HIV-1 isolates at 0.01 MOI in the absence or presence of a compound at graded concentrations. Culture media were changed every 3 days. The supernatants were collected 7 days post-infection and tested for p24 antigen by ELISA as described above. The percent inhibition of p24 production and EC50 values were calculated as described above.
(§1) 4. Synergy analysis. […] In all analyses, HIV fusion/entry inhibitors were assumed to act noncompetitively, which led to a more conservative estimate of synergy. CI values<1 and >1 indicate synergy and antagonism, respectively. Dose reductions were calculated as the compound concentrations required for inhibition of HIV-1 replication when the compound was used alone and in combination. The statistic analysis was performed by the One-Way Analysis of Variance (One-Way ANOVA) method using Origin 6.1 software.

HIV-1 NL4-3D36G = assay: Inhibition of infection by T-20-sensitive strain NL4-3D36G; type: cell-based; settings: for Dose reduction: NL4-3D36G
Experimental: (§2) 2. Inhibition of HIV infection as measured by luciferase assay. The inhibitory activity of fusion/entry inhibitors on HIV infection in TZM-bl cells was determined by using a luciferase assay (Wei X et al. Antimicrob. Agents Chemother. 46:1896-1905, 2002). Briefly, 50 μl of a compound at graded concentration in triplicate were incubated with an equal volume of an HIV-1 isolate at 0.01 multiplicity of infection (MOI) at 37° C. for 30 min, followed by addition of the mixture to 100 μl TZM-bl cells (1×10^5/ml) that were pre-cultured in a 96-well plate at 37° C. overnight. After further culture at 37° C. for 3 days, the cells were harvested and lyzed with 50 μl lysing reagent. The luciferase activity was analyzed using a luciferase kit (Promega Corp.) and a luminometer (Model: Ultra […], Tecan) according to the manufacture's instruction. The percent inhibition of cell fusion by a compound as well as EC50 and EC90 values were calculated using the software CalcuSyn.
(§3) 3. Inhibition of HIV replication as measured by p24 antigen production. The inhibitory activity of fusion/entry inhibitors on HIV-1 infection as measured by p24 antigen production was determined as previously described (Zhao Q et al. AIDS Res Hum Retroviruses 18:989-997, 2002). In brief, 1×10^4 MT-2 cells were infected with an HIV-1 strain (100 TCID50) in 200 μl RPMI 1640 medium containing 10% FBS in the presence or absence of testing compounds at graded concentrations overnight. Then the culture supernatants were removed and fresh media containing no testing compounds were added. On the fourth day post-infection, 100 μl of culture supernatants were collected from each well, mixed with equal volumes of 5% Triton X-100 and assayed for p24 antigen, which was quantitated by ELISA. Briefly, wells of polystyrene plates were coated with HIV immunoglobulin (HIVIG, prepared from plasma of HIV-seropositive donors with high neutralizing titers against HIV-1IIIB), in 0.085 M carbonate-bicarbonate buffer (pH 9.6) at 4° C. overnight, followed by washes with washing buffer (0.01 M PBS containing 0.05% Tween-20) and blocking with PBS containing 1% dry fat-free milk. Virus lysates were added to the wells and incubated at 37° C. for 1 hr. […] Reactions were terminated by addition of 1N H2SO4. Absorbance at 450 nm was recorded in an ELISA reader (Ultra 384, TECAN). Recombinant protein p24, purchased from US Biological, was included for establishing standard dose response curves. Each sample was tested in triplicate. The percentage of inhibition of p24 production was calculated as previously described (Neurath A R et al. BMC Infect Dis 2:6, 2002).
as §1

[2] = system: HIV-1 BaL (subtype B, R5)
Experimental: as §2, §3, §1

[3] = system: HIV-1 IIIB (subtype B, X4)
Experimental: as §2, §3, §1

[4] = system: HIV-1 NL4-3(36G)V38A/N42D
Experimental: as §2, §3, §1

HIV-1 NL4-3(36G)V38A = system: HIV-1 NL4-3(36G)V38A
Experimental: as §2, §3, §1

[5] = system: HIV-1 NL4-3(36G)V38E/N42S
Experimental: as §2, §3, §1

[6] = system: viruses that are resistant to T-20; settings: viruses resistant to T-20; cited from earlier work
[7] = RU570 (G, R5) primary isolate, peptide alone, read-out: EC50 alone
[8] = RU570, T-20+T-1249+T-1144 4:1:1
[9] = RU570, T-20 combined with T-1144
[10] = read-out: EC50 alone, Bal (B, R5), peptide alone
[11] = IIIB, T-20+T-1249+T-1144 16:4:1
[12] = IIIB, T-20 combined with T-1144
[13] = read-out: EC50 alone, IIIB (B, X4), peptide alone
[14] = read-out: EC50 alone, peptide alone
[15] = read-out: EC50 in mixture, T-20+T-1249+T-1144 80:1:1
[16] = read-out: EC50 in mixture, T-20 combined with T-1144, ratios 80:1:1
[17] = read-out: EC50 in mixture, T-20 combined with T-1249, ratios 80:1:1

With `CC[C@H](C)[C@H](NC(=O)[C@H](C)NC(=O)[C@H](CCCNC(=N)N)NC(=O)[C@H](CC(=O)O)NC(=O)[C@H](Cc1c[nH]c2ccccc12)NC(=O)[C@H](C)NC(=O)[C@H](CCC(=O)O)NC(=O)[C@H](Cc1c[nH]c2ccccc12)NC(=O)[C@@H](NC(=O)[C@@H](NC(C)=O)[C@@H](C)O)[C@@H](C)O)C(=O)N[C@@H](C)C(=O)N[C@@H](CCC(=O)O)C(=O)N[C@@H](Cc1ccc(O)cc1)C(=O)N[C@@H](C)C(=O)N[C@@H](C)C(=O)N[C@@H](CCCNC(=N)N)C(=O)N[C@H](C(=O)N[C@@H](CCC(=O)O)C(=O)N[C@@H](C)C(=O)N[C@@H](CC(C)C)C(=O)N[C@@H](CC(C)C)C(=O)N[C@@H](CCCNC(=N)N)C(=O)N[C@@H](C)C(=O)N[C@@H](CC(C)C)C(=O)N[C@@H](CCC(N)=O)C(=O)N[C@@H](CCC(=O)O)C(=O)N[C@@H](CCC(N)=O)C(=O)N[C@@H](CCC(N)=O)C(=O)N[C@@H](CCC(=O)O)C(=O)N[C@@H](CCCCN)C(=O)N[C@@H](CC(N)=O)C(=O)N[C@@H](CCC(=O)O)C(=O)N[C@@H](C)C(=O)N[C@@H](C)C(=O)N[C@@H](CC(C)C)C(=O)N[C@@H](CCCNC(=N)N)C(=O)N[C@@H](CCC(=O)O)C(=O)N[C@@H](CC(C)C)C(N)=O)[C@@H](C)CC` [T-1144] (Ac-TTWEAWDRAIAEYAARIEALLRALQEQQEKNEAALREL-NH2; N-terminus and C-terminus assumed) the pEC50 [1, 7] was 7.62, the Dose reduction [1, 8] was 21.23 fold and the Dose reduction [1, 9] was 18.62 fold. It also gave a pEC50 (HIV-1 NL4-3D36G; NL4-3D36G (T-20-sensitive), peptide alone) of 8.23, a Dose reduction (HIV-1 NL4-3D36G; T-20+T-1249+T-1144 7:5:1) of 15.81 fold and a Dose reduction (HIV-1 NL4-3D36G; T-20 combined with T-1144) of 13.00 fold. For the same compound, the Dose reduction ([2]; Bal, T-20+T-1249+T-1144 2:1:1) was 209.00 fold, the Dose reduction ([2]; Bal, T-20 combined with T-1144) was 19.90 fold and the pEC50 [2, 10] was 8.38. It also gave a Dose reduction [3, 11] of 99.00 fold, a Dose reduction [3, 12] of 7.98 fold and a pEC50 [3, 13] of 8.31. For the same compound, the Dose reduction ([4]; T-20+T-1249+T-1144 80:1:1) was 9.33 fold, the Dose reduction ([4]; T-20 combined with T-1144) was 1.82 fold and the pEC50 [4, 14] was 8.34. The Dose reduction (HIV-1 NL4-3(36G)V38A; T-20+T-1249+T-1144 80:1:1) was 37.60 fold, the Dose reduction (HIV-1 NL4-3(36G)V38A; T-20 combined with T-1144) was 16.35 fold and the pEC50 (HIV-1 NL4-3(36G)V38A; [14]) was 8.42. For the same compound, the Dose reduction ([5]; T-20+T-1249+T-1144 3000:200:1) was 37.21 fold, the Dose reduction ([5]; T-20 combined with T-1144) was 4.17 fold and the pEC50 [5, 14] was 8.28. The “activity relative to T-20” value [6] was “thousands fold more active than T-20”.

Compound enfuvirtide has a pEC50 [1, 7] of 7.42, a Dose reduction [1, 8] of 8.47 fold and a pEC50 ([1]; RU570, T-20+T-1249+T-1144 4:1:1, read-out: EC50 in mixture) of 8.34. The Dose reduction [1, 9] was 7.41 fold, the pEC50 ([1]; RU570, T-20 combined with T-1144, ratios 4:1:1, read-out: EC50 in mixture) was 8.28 and the pEC50 ([1]; RU570, T-20 combined with T-1249, ratios 4:1:1, read-out: EC50 in mixture) was 8.22. The Dose reduction (HIV-1 NL4-3D36G; T-20+T-1249+T-1144 7:5:1) was 18.61 fold, the Dose reduction (HIV-1 NL4-3D36G; T-20 combined with T-1144) was 15.53 fold and the Dose reduction (HIV-1 NL4-3D36G; T-20 combined with T-1249) was 6.48 fold. The Dose reduction ([2]; Bal, T-20+T-1249+T-1144 2:1:1) was 280.67 fold, the Dose reduction ([2]; Bal, T-20 combined with T-1144) was 20.05 fold and the Dose reduction ([2]; Bal, T-20 combined with T-1249) was 11.53 fold. For the same compound, the pEC50 [2, 10] was 8.07, the pEC50 ([2]; read-out: EC50 in mixture, Bal, T-20+T-1249+T-1144 2:1:1) was 10.52 and the pEC50 ([2]; read-out: EC50 in mixture, Bal, T-20 combined with T-1144, ratios 2:1:1) was 9.38. For the same compound, the pEC50 ([2]; read-out: EC50 in mixture, Bal, T-20 combined with T-1249, ratios 2:1:1) was 9.14, the Dose reduction [3, 11] was 71.04 fold and the Dose reduction [3, 12] was 5.11 fold. For the same compound, the Dose reduction ([3]; IIIB, T-20 combined with T-1249) was 3.32 fold, the pEC50 [3, 13] was 7.30 and the pEC50 ([3]; read-out: EC50 in mixture, IIIB, T-20+T-1249+T-1144 16:4:1) was 9.15. The pEC50 ([3]; read-out: EC50 in mixture, IIIB, T-20 combined with T-1144, ratios 16:4:1) was 8.01, the pEC50 ([3]; read-out: EC50 in mixture, IIIB, T-20 combined with T-1249, ratios 16:4:1) was 7.82 and the Dose reduction ([4]; T-20+T-1249+T-1144 80:1:1) was 67.90 fold. It also gave a Dose reduction ([4]; T-20 combined with T-1144) of 13.17 fold, a Dose reduction ([4]; T-20 combined with T-1249) of 11.56 fold and a pEC50 [4, 14] of 5.58. For the same compound, the pEC50 [4, 15] was 7.41, the pEC50 [4, 16] was 6.70 and the pEC50 [4, 17] was 6.64. The Dose reduction (HIV-1 NL4-3(36G)V38A; T-20+T-1249+T-1144 80:1:1) was 37.76 fold, the Dose reduction (HIV-1 NL4-3(36G)V38A; T-20 combined with T-1144) was 16.78 fold and the Dose reduction (HIV-1 NL4-3(36G)V38A; T-20 combined with T-1249) was 23.03 fold. The pEC50 (HIV-1 NL4-3(36G)V38A; [14]) was 6.50, the pEC50 (HIV-1 NL4-3(36G)V38A; [15]) was 8.08 and the pEC50 (HIV-1 NL4-3(36G)V38A; [16]) was 7.73. It also gave a pEC50 (HIV-1 NL4-3(36G)V38A; [17]) of 7.87, a Dose reduction ([5]; T-20+T-1249+T-1144 3000:200:1) of 24.12 fold and a Dose reduction ([5]; T-20 combined with T-1144) of 2.64 fold. The Dose reduction ([5]; T-20 combined with T-1249) was 13.51 fold, the pEC50 [5, 14] was 5.00 and the pEC50 ([5]; read-out: EC50 in mixture, T-20+T-1249+T-1144 3000:200:1) was 6.39. For the same compound, the pEC50 ([5]; read-out: EC50 in mixture, T-20 combined with T-1144, ratios 3000:200:1) was 5.43 and the pEC50 ([5]; read-out: EC50 in mixture, T-20 combined with T-1249, ratios 3000:200:1) was 6.14.
